Reference: the NIST ThermoML archive (doi:10.1021/je300584m)

Key:
[1] = Molar enthalpy of transition or fusion; conditions: Crystal; DSC

O=C1c2ccccc2-c2ccccc21 [9(9H)-fluorenone]
Conditions	Molar enthalpy of transition or fusion [kcal/mol]
[1]	4.21

vapor or sublimation pressure [kPa]
Conditions	Crystal	Liquid
312.19 K, Calculated from knudsen effusion weight loss	8.9e-05	–
314.21 K, Calculated from knudsen effusion weight loss	0.000115	–
316.11 K, Calculated from knudsen effusion weight loss	0.000143	–
318.18 K, Calculated from knudsen effusion weight loss	0.00018	–
320.2 K, Calculated from knudsen effusion weight loss	0.000225	–
322.11 K, Calculated from knudsen effusion weight loss	0.000273	–
324.19 K, Calculated from knudsen effusion weight loss	0.000344	–
326.19 K, Calculated from knudsen effusion weight loss	0.00043	–
326.88 K, Closed cell (Static) method	0.00045	–
327.85 K, Closed cell (Static) method	–	0.0008
328.11 K, Calculated from knudsen effusion weight loss	0.000528	–
328.32 K, Closed cell (Static) method	0.00053	–
329.82 K, Closed cell (Static) method	–	0.00095
329.83 K, Closed cell (Static) method	0.00061	–
330.18 K, Calculated from knudsen effusion weight loss	0.000638	–
331.3 K, Closed cell (Static) method	0.00072	–
331.79 K, Closed cell (Static) method	–	0.00112
332.18 K, Calculated from knudsen effusion weight loss	0.000796	–
332.81 K, Closed cell (Static) method	0.00085	–
333.8 K, Closed cell (Static) method	–	0.00133
334.1 K, Calculated from knudsen effusion weight loss	0.000977	–
334.29 K, Closed cell (Static) method	0.00098	–
335.78 K, Closed cell (Static) method	0.00113	0.00159
337.25 K, Closed cell (Static) method	0.00133	–
337.74 K, Closed cell (Static) method	–	0.00185
338.75 K, Closed cell (Static) method	0.00153	–
339.72 K, Closed cell (Static) method	–	0.00217
340.21 K, Closed cell (Static) method	0.00177	–
341.69 K, Closed cell (Static) method	0.00205	–
341.76 K, Closed cell (Static) method	–	0.00258
343.19 K, Closed cell (Static) method	0.00235	–
343.72 K, Closed cell (Static) method	–	0.00299
344.68 K, Closed cell (Static) method	0.00272	–
345.66 K, Closed cell (Static) method	–	0.00348
346.2 K, Closed cell (Static) method	0.00311	–
347.68 K, Closed cell (Static) method	0.00355	0.00409
349.17 K, Closed cell (Static) method	0.00409	–
349.66 K, Closed cell (Static) method	–	0.00468
350.65 K, Closed cell (Static) method	0.00467	–
351.63 K, Closed cell (Static) method	–	0.00545
352.14 K, Closed cell (Static) method	0.00544	–
353.63 K, Closed cell (Static) method	–	0.0063
355.58 K, Closed cell (Static) method	–	0.00731
357.59 K, Closed cell (Static) method	–	0.0084
359.82 K, Closed cell (Static) method	–	0.00981
361.57 K, Closed cell (Static) method	–	0.01112
361.59 K, Closed cell (Static) method	–	0.01107
363.79 K, Closed cell (Static) method	–	0.01285
365.52 K, Closed cell (Static) method	–	0.01446
367.74 K, Closed cell (Static) method	–	0.01661
369.53 K, Closed cell (Static) method	–	0.01887
371.72 K, Closed cell (Static) method	–	0.02159
373.53 K, Closed cell (Static) method	–	0.02435
375.67 K, Closed cell (Static) method	–	0.02768
377.47 K, Closed cell (Static) method	–	0.03128
379.65 K, Closed cell (Static) method	–	0.03529
381.4 K, Closed cell (Static) method	–	0.03955
383.6 K, Closed cell (Static) method	–	0.04451
385.47 K, Closed cell (Static) method	–	0.05021
387.56 K, Closed cell (Static) method	–	0.05645
391.51 K, Closed cell (Static) method	–	0.07082
393.41 K, Closed cell (Static) method	–	0.07755
395.41 K, Closed cell (Static) method	–	0.08762
397.36 K, Closed cell (Static) method	–	0.09675
399.35 K, Closed cell (Static) method	–	0.1089
401.32 K, Closed cell (Static) method	–	0.1202
403.3 K, Closed cell (Static) method	–	0.1342
406.25 K, Closed cell (Static) method	–	0.1558
407.26 K, Closed cell (Static) method	–	0.1646
409.18 K, Closed cell (Static) method	–	0.1808
411.21 K, Closed cell (Static) method	–	0.2014
413.17 K, Closed cell (Static) method	–	0.2206
415.17 K, Closed cell (Static) method	–	0.244
417.11 K, Closed cell (Static) method	–	0.2679
419.13 K, Closed cell (Static) method	–	0.2948
421.06 K, Closed cell (Static) method	–	0.3242
423.04 K, Closed cell (Static) method	–	0.355
425 K, Closed cell (Static) method	–	0.3873
427.02 K, Closed cell (Static) method	–	0.4288
428.95 K, Closed cell (Static) method	–	0.467
430.77 K, Closed cell (Static) method	–	0.511
432.92 K, Closed cell (Static) method	–	0.5574
434.9 K, Closed cell (Static) method	–	0.604
436.86 K, Closed cell (Static) method	–	0.6602
438.87 K, Closed cell (Static) method	–	0.7204
440.85 K, Closed cell (Static) method	–	0.7844

Conditions	Normal melting temperature [°C]
Crystal, DTA	83.01
